{"source": "patent US8679832B2", "about": "“Detection of protein translocation by beta-galactosidase reporter fragment complementation” (The Board of Trustees of the Leland Stanford Junior …, priority 2004, dated 2014)", "key": {"C1A domain from PKCγ": {"target": "T1, C1A domain from PKCγ (Homo sapiens, UniProt P05129)", "T1 construct": "the C1A domain from PKCγ was fused to four of the GFP-α point mutants; β-galactosidase α peptide carrying H31R, E41Q, N39D or N39Q (β-gal numbering; the mutation lies in the tag, not in PKCγ); expressed in transfected cells; host or cells: NIH 3T3 cells expressing tEGFR-ω", "assay": "Plasma membrane translocation assay: C1A domain of PKCγ fused to GFP-α mutants, tEGFR-ω in NIH 3T3 cells, β-galactosidase complementation", "format": "cell-based", "from_the_text": "Creation of a plasma membrane translocation assay required expression of the ω fragment at the membrane which was achieved using the tEGFR-ω construct. When the target protein-α fusion move from the cytosol to the membrane, the local increased concentration of a peptide should drive complementation as illustrated in FIG. 4B. To determine which of the mutants would work best in this type of assay the C1A domain from PKCγ was fused to four of the GFP-α point mutants that complemented to varying degrees, H31R, E41Q, N39D, and N39Q. […] The ω fragment was tethered to the plasma membrane using the extracellular and transmembrane regions of the EGFR. Four of the mutants were fused to the C1A domain of PKCγ and co-expressed with the tEGFR. Their responses to 1 μM PMA for 20 min were expressed as a fold induction over background. The C1A domain efficiently translocated to the plasma membrane when exposed to phorbol esters such as PMA (FIG. 4C). The fusion proteins were expressed in NIH 3T3 cells expressing the tEGFR-ω, and assayed for increased complementation in the presence of PMA for 30 min.\nThe translocation of the C1A domain in response to PMA stimulation has been extensively characterized by fusion to GFP. The largest increase in fluorescence at the plasma membrane in response to PMA was reported to be 70% with the lowest dose of PMA detected using these methods being between 10 and 100 nM. […] Importantly, the requirement of the co fragment for complementation ensured that enzyme activity was only generated where the co-fragment was localized. Thus, the assay measured increases in protein concentration at a specific location in the cell."}, "C1A domain": {"target": "T2, C1A domain (Homo sapiens, UniProt P05129)", "T2 construct": "The translocation of the C1A domain in response to PMA stimulation has been extensively characterized by fusion to GFP", "details": "C1A-GFP, response to PMA, reported; cited from earlier work"}, "glucocorticoid receptor": {"target": "glucocorticoid receptor (Homo sapiens, UniProt P04150)", "sequence (P04150 whole entry, species assumed, the tested form may be a part)": "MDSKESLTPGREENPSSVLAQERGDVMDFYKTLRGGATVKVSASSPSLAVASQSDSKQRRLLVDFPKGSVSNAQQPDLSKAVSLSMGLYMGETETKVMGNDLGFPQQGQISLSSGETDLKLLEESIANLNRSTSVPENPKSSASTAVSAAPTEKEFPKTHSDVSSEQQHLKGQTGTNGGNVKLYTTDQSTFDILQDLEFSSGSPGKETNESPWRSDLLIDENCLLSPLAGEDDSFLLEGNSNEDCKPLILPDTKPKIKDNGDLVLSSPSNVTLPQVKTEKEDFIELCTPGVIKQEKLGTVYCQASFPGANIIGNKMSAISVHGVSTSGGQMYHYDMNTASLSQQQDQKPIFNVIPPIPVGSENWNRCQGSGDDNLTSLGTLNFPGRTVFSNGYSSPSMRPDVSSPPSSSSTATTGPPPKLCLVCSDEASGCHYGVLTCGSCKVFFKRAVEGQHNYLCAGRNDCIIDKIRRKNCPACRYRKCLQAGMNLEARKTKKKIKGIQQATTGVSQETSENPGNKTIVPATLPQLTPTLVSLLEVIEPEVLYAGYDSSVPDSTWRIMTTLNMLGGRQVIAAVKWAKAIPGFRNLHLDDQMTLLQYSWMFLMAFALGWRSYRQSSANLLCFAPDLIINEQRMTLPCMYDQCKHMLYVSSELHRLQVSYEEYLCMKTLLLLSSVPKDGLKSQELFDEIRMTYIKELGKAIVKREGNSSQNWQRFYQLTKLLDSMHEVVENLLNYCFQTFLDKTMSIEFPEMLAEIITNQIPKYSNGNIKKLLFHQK", "details": "30 min of treatment", "from_the_text": "To test the applicability of the system to a physiological translocation event the glucocoticoid receptor was fused to the amino-terminus of the GFP-α fusion. The glucocoticoid receptor is a nuclear steroid hormone receptor that undergoes a robust nuclear translocation in response to treatment with various hormones including dexamethasone. This construct was stably introduced into both the co-NLS and tEGFR-ω cell lines then assayed for changes in β-galactosidase activity upon treatment of the cells with dexamethasone using the luminescent β-galactosidase substrate.\nCell lines shown in FIG. 3 A were treated with varying concentrations of dexamethasone and assayed over time. […] The GR-α cell lines were treated with 1 μM dexamethasone (red) for 3 hours then stained with the luorescent β-galactosidase DDAO substrate and analyzed by low cytometry."}, "[1]": {"system": "Crm1 mediated nuclear export", "assay": "Nuclear translocation gain of signal assay: NES-GFP-α-NLS co-expressed with ω-NLS, β-galactosidase complementation, luminescent substrate", "format": "cell-based, mouse", "details": "leptomycin B for 2 hours, C2C12 myoblasts", "from_the_text": "In order to utilize a complementation as a method of quantitatively assessing nuclear translocation events, two systems were designed that are distinct in the localization of the ω-fragment. FIG. 2A is a schematic showing the design of the nuclear translocation assay. In the let panel, the ω fragment is localized to the nucleus with a nuclear localization signal (NLS) and the cytosolic protein of interest is fused to the minimal α peptide. Upon stimulation the α fusion moves to the nucleus and complements the co, increasing β-galactosidase activity. In the right panel, the co fragment is tethered to the plasma membrane using the extracellular and transmembrane regions of EGFR. The cytosolic α-fusion complements spontaneously until stimulation when it translocates to the nucleus which results in a loss of enzyme activity.\nThe gain of signal assay (FIG. 2A left panel) localized the ω to the nucleus through fusion to a triplet SV40 nuclear localization signal (NLS). Thus, an increase in β-galactosidase activity should be observed when the target protein-α fusion moves from the cytosol to the nucleus. The loss of signal assay (FIG. 2 A right panel) localized the ω-fragment to the plasma membrane through fusion to the extracellular and transmembrane regions of the EGF receptor (tEGFR). […]"}, "PH domain of AKT": {"system": "PH domain of AKT", "assay": "AKT PH domain plasma membrane translocation: AKT-GFP-α in 3T3 fibroblasts with tEGFR-ω, luminescent β-galactosidase assay, 96-well", "format": "cell-based", "details": "50 ng/ml PDGF, insulin, or sorbitol; 3T3 cells; maximal over time course", "method": "To test whether the system was robust enough to monitor translocation events in response to physiologically relevant stimuli, this system was applied to the translocation of the PH domain of AKT. […] The PH domain of AKT was fused to the GFP-α chimera and expressed in 3T3 fibroblasts harboring the tEGFR-ω protein. […] The cells were stimulated under various conditions, and the translocation of the PH domain was assayed in 96-well dishes by a luminescent measure of β-galactosidase activity."}}, "note": "Like-named read-outs stand apart in the source and are kept apart here.", "data": [{"molecule": "CCCCCCCCCCCCCC(=O)O[C@@H]1[C@@H](C)[C@@]2(O)[C@@H](C=C(CO)C[C@]3(O)C(=O)C(C)=C[C@@H]23)[C@@H]2C(C)(C)[C@]12OC(C)=O", "note": "[PMA]", "values": [{"measurement": "increase in signal", "setting": "C1A domain from PKCγ; 800 nM PMA (saturating)", "value": 1000, "unit": "%"}, {"measurement": "saturating PMA concentration", "setting": "C1A domain from PKCγ; C1A domain membrane translocation assay", "value": 800, "unit": "nM"}, {"measurement": "increases in enzyme activity in the presence of PMA", "setting": "C1A domain from PKCγ; β-galactosidase complementation, H31R", "value": "700-1000%"}, {"measurement": "largest increase in fluorescence at the plasma membrane", "setting": "C1A domain", "value": 70, "unit": "%"}]}, {"molecule": "C[C@@H]1C[C@H]2[C@@H]3CCC4=CC(=O)C=C[C@]4(C)[C@@]3(F)[C@@H](O)C[C@]2(C)[C@@]1(O)C(=O)CO", "note": "[dexamethasone]", "values": [{"measurement": "difference in β-galactosidase activity", "setting": "glucocorticoid receptor; gain of signal", "value": 100, "unit": "%"}, {"measurement": "difference in β-galactosidase activity", "setting": "glucocorticoid receptor; loss of signal", "value": 25, "unit": "%"}]}, {"molecule": "CCC(=C/[C@H](C)C/C=C/C(C)=C/[C@@H](C)C(=O)[C@@H](C)[C@H](O)[C@@H](C)C/C(C)=C/C(=O)O)/C=C/[C@@H]1OC(=O)C=C[C@@H]1C", "note": "[leptomycin B]", "values": [{"measurement": "increase in β-galactosidase activity", "setting": "[1]", "value": 3.5, "unit": "fold"}]}, {"molecule": "OC[C@@H](O)[C@@H](O)[C@H](O)[C@@H](O)CO", "note": "[sorbitol]", "values": [{"measurement": "increase in β-galactosidase activity", "setting": "PH domain of AKT", "value": 8, "unit": "fold"}]}, {"molecule": "H31R: α peptide of β-galactosidase with H31R mutation, low affinity (MGVITDSLAVVLQRRDWENPGVTQLNRLAARPPFASWRNSEEARTDRPSQQL; E. coli; PEPTIDE (1)..(52) alpha peptide (H31R))", "values": [{"measurement": "induction of β-galactosidase activity in the presence of PMA", "setting": "C1A domain from PKCγ; C1A-GFP-α mutant, 1 μM PMA, NIH 3T3 tEGFR-ω", "value": 7, "unit": "fold"}]}, {"molecule": "platelet-derived growth factor [PDGF]", "values": [{"measurement": "increase in β-galactosidase activity", "setting": "PH domain of AKT", "value": 5, "unit": "fold"}]}, {"molecule": "wt peptide: wild type α peptide of β-galactosidase (MGVITDSLAVVLQRRDWENPGVTQLNRLAAHPPFASWRNSEEARTDRPSQQL; E. coli; PEPTIDE (1)..(52) alpha peptide (wildtype))", "values": [{"measurement": "increase in β-galactosidase activity in the presence of PMA", "setting": "C1A domain from PKCγ; C1A-GFP-α wt peptide, PMA, NIH 3T3 tEGFR-ω", "value": "< 10", "unit": "%"}]}]}
